The values that follow come from ChEMBL document CHEMBL1201862, “PubChem BioAssay data set” (2004).

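Briefly, cells in 96-well plates were exposed to five compound concentrations for 48 h, and endpoints were estimated by linear interpolation. GI50 marks 50% less growth.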 Calls of active or inactive are those of the source. Cut-off read from the data, not from the text of the source: active = GI50 up to about 1.1 µM and inactive = higher. Bounds are passed on as bounds.

Some test systems named below: NCI/ADR-RES; SN12C; 786-0; HOP-62; OVCAR-4; Malme-3M; KM12; UO-31; OVCAR-8; UACC-62; K562; SF-295; LXFL 529; COLO 205; CCRF-CEM; IGROV-1; EKVX; NCI-H460; T47D; A549.
Common to all, as to experiment: NCI tumour cell line growth inhibition, 48 h

`NC(=O)c1nnn(Cc2cc(Cl)c(C(=O)c3ccc(Cl)cc3)c(Cl)c2)c1N` [CARBOXYAMIDOTRIAZOLE]: the GI50 with NCI/ADR-RES was 32.1 µM (inactive); with SN12C, 29.2 µM (inactive); in the assay on 786-0 it was 27.9 µM (inactive); with HOP-62 it was 25.7 µM (inactive); in the assay on OVCAR-4, 22 µM (inactive); in the assay on Malme-3M it was 27.5 µM (inactive). In addition, the GI50 in the assay on KM12 is 10.4 µM (inactive); with UO-31, 25.6 µM (inactive); in the assay on OVCAR-8, 24.1 µM (inactive); with UACC-62, 12.9 µM (inactive); with K562, 8.05 µM (inactive); in the assay on SF-295 it was 9.77 µM (inactive). Further, the GI50 in the assay on LXFL 529 is > 9.1 µM (inactive); with COLO 205 it was 27.8 µM (inactive); with CCRF-CEM, 31 µM (inactive); with IGROV-1, 22.5 µM (inactive); in the assay on EKVX, 16.8 µM (inactive); in the assay with NCI-H460 it was 14.8 µM (inactive). In addition, the GI50 was 17.7 µM (inactive) with T47D and 12.7 µM (inactive) in the assay on A549.
On to `O=C1c2ccccc2C(=O)c2c(/C=C\N3CCCCC3)ccnc21`, for which the GI50 is 3.6 µM (inactive) in the assay on NCI/ADR-RES; 1.4 µM (inactive) in the assay on SN12C; 6.35 µM (inactive) in the assay with 786-0; 3.81 µM (inactive) in the assay on HOP-62; 9.57 µM (inactive) in the assay with OVCAR-4; 0.661 µM (active) in the assay with Malme-3M. For the same molecule, the GI50 is 3.97 µM (inactive) in the assay on KM12; 2.01 µM (inactive) in the assay on UO-31; 2.15 µM (inactive) with OVCAR-8; 0.659 µM (active) in the assay on UACC-62; 0.551 µM (active) in the assay with K562; 2.47 µM (inactive) in the assay with SF-295. In addition, the GI50 in the assay on LXFL 529 was 0.377 µM (active); in the assay with COLO 205, 3.51 µM (inactive); in the assay with CCRF-CEM, 3.78 µM (inactive); with IGROV-1, 11.1 µM (inactive); in the assay with EKVX, 15.2 µM (inactive); with NCI-H460 it was 1.3 µM (inactive). In addition, the GI50 in the assay with T47D is 2.97 µM (inactive); in the assay with A549, 2.12 µM (inactive).
On to `c1cc(-c2cn3ccsc3n2)ccn1`, for which the GI50 in the assay on SN12C was > 100 µM (inactive); in the assay on 786-0 it was 38.4 µM (inactive); with HOP-62, > 100 µM (inactive); in the assay on OVCAR-4 it was > 65.8 µM (inactive); in the assay on Malme-3M, > 100 µM (inactive); in the assay with KM12, > 100 µM (inactive). The GI50 is > 100 µM (inactive) with UO-31; > 45.1 µM (inactive) with OVCAR-8; > 100 µM (inactive) with UACC-62; > 47.2 µM (inactive) in the assay with K562; > 100 µM (inactive) with SF-295; > 100 µM (inactive) in the assay on LXFL 529. Further, the GI50 is > 61.9 µM (inactive) in the assay with COLO 205; > 41.8 µM (inactive) with CCRF-CEM; > 100 µM (inactive) in the assay with IGROV-1; > 41.8 µM (inactive) in the assay with EKVX; 99.3 µM (inactive) in the assay with NCI-H460; > 100 µM (inactive) in the assay on A549.
Turning to `O=[N+]([O-])c1ccc(-c2noc(-c3ccccc3)c2C2=NCCN2)cc1`, the GI50 in the assay on SN12C was > 100 µM (inactive); in the assay on 786-0, 54 µM (inactive); in the assay with HOP-62 it was 29.9 µM (inactive); with OVCAR-4, 77.6 µM (inactive); in the assay with Malme-3M, > 100 µM (inactive); in the assay on KM12 it was > 100 µM (inactive). The GI50 with UO-31 was 24.9 µM (inactive); with OVCAR-8 it was > 100 µM (inactive); in the assay on UACC-62, > 100 µM (inactive); in the assay on K562, > 100 µM (inactive); with SF-295 it was 44.7 µM (inactive); with LXFL 529, > 100 µM (inactive). For the same molecule, the GI50 with COLO 205 was 45.5 µM (inactive); with CCRF-CEM, > 100 µM (inactive); with IGROV-1, > 100 µM (inactive); in the assay on EKVX, > 100 µM (inactive); in the assay with NCI-H460 it was > 100 µM (inactive); in the assay with A549, > 100 µM (inactive).
